# Test results: PMC6155625 (Molecules : A Journal of Synthetic Chemistry and Natural …, 2017)
# Marks after values point to notes of the source that are not given here.
# Key:
# VH10 cells = assay: In vitro mammalian chromosome aberration test on VH10; type: cell-based, human; conditions: for Number of Aberrant Metaphases / Number of Chromosome Aberrations, Chromatid b/f / Number of Chromosome Aberrations, Chromatid g / Number of Chromosome Aberrations, Exchange qr / Number of Chromosome Aberrations, Exchange tr / Number of Chromosome Aberrations, Isochromatid b/f / Total Number of CA / Number of Chromosome Aberrations, Exchange dic: 100 metaphases
# Method: HepG2 and VH10 cells were seeded into Petri dishes (Ø = 60 mm; HepG2 inoculum of 1 × 10^6 cells/dish and VH10 inoculum of 3.8 × 10^5 cells/dish) for 2 h. Then, HF non-clastogenic concentrations (0.75 or 1.5 µM) were added and the cultures were incubated for 24 h. These concentrations of HF were chosen based on preliminary experiments (range-finding tests). Afterwards the medium was replaced with fresh medium alone or with fresh medium containing mutagens B(a)P (1.7 μM for HepG2 cells) or cisPt (0.5 μM for HepG2 cells and 0.75 μM for VH10 cells), and the HepG2 cells were cultivated further for 42 h and VH10 cells for 36 h, which approximately corresponds to 1.3 cell cycles of HepG2 and VH10 cells. Three hours before the end of the cultivation, colchicine (0.75 µg/mL) was added. Before karyological processing, the cells were counted. Slides were prepared by the standard air-drying method and were stained with 2% aqueos Giemsa-Romanowski solution for 10 min.
# (§1) Chromosome aberrations were evaluated by a microscopic examination. For each sample, 100 metaphases were analyzed. We focused on the following structural aberrations; breaks, chromatid, and iso-chromatid, and exchanges, including dicentrics, rings, tri-radials and quadri-radials. The results were evaluated statistically on the basis of the difference between two relative values. The percentage of aberrant metaphases and the total number of chromosome aberrations was compared to solvent control (SC), or clastogenic effect, and positive control (PC), or anticlastogenic effect. Since the genetic significance of gaps is not clearly understood, they were not included in the assessment of chromosomal damage and thus were not evaluated statistically.
# HepG2 cells [1] = assay: In vitro mammalian chromosome aberration test on HepG2; type: cell-based, human
# Method: HepG2 and VH10 cells were seeded into Petri dishes (Ø = 60 mm; HepG2 inoculum of 1 × 10^6 cells/dish and VH10 inoculum of 3.8 × 10^5 cells/dish) for 2 h. […] Three hours before the end of the cultivation, colchicine (0.75 µg/mL) was added. Before karyological processing, the cells were counted. Slides were prepared by the standard air-drying method and were stained with 2% aqueos Giemsa-Romanowski solution for 10 min.
# as §1
# HepG2 cells [2] = conditions: read-out: IC50 (cell survival, MTT), 42 h treatment
# Method: Thereafter, the medium was removed, and replaced by 200 µL of DMSO. The absorbance was measured at 540 and 690 nm using an xMarkTM Microplate Spectrophotometer (Bio-Rad Laboratories, Inc., Berkeley, CA, USA).
# human lymphocytes = conditions: HF 0.02–1 µM pretreatment, then zeocin 4.5 µM
# Method: In the alkaline comet assay human lymphocytes were used. They were isolated from peripheral blood obtained by the finger prick method. To 1 mL of ice cold 1× PBS, 40 μL of peripheral blood was added and allowed to stand on ice for 30 min. Lymphocytes were separated from whole blood samples by standard centrifugation with 100 μL of the Histopaque medium (Sigma-Aldrich). After the centrifugation, 200 μL of isolated cells were resuspended in 1 mL of 1× PBS buffer and re-centrifuged.
# This assay was selected for detecting the potential antigenotoxic effect of HF towards zeocin on the human lymphocytes. […] Briefly, human lymphocytes were suspended in 1% low melting point agarose (LMP) in PBS and placed on slides pre-coated with 1% normal melting point agarose (NMP). Slides with embedded lymphocytes were incubated for 1 h in HF solution (0.02; 0.05; 0.2; 1 µM). […] Afterwards, the zeocin solution was rinsed off with PBS. […] For the negative control, cells were left untreated in PBS for 1 h. […] Finally, the slides were stained with 20 µg/mL of ethidium bromide (Sigma-Aldrich, Bratislava, Slovakia), and, in each sample, 100 random nucleoids were scored at magnification 400× using a fluorescence microscope Olympus BX 51. The DNA damage was evaluated using the Comet visual computer software. DNA damage was expressed as the percentage of DNA in the tail (% tail DNA) [55]. […]
# S. typhimurium TA98 = conditions: all HF concentrations (0.075–2 µg/plate) + 4-NQO 20 µg/plate; without S9
# Method: (§2) The Ames assay was conducted according to the method modified by Maron and Ames. In the Ames test, three bacterial strains of S. typhimurium (TA97, TA98, and TA100) were used. These strains are deficient in histidine and biotin, and, at the same time, they are deficient in excision repair. Prior to each experiment, the quality of each bacterial strain was checked similarly, as described by Berg et al.. The assay was carried out in sterile test tubes containing 100 µL (approximately 1.10^8 cells/mL) of overnight bacterial culture (overnight cultivated in 50 mL of LB medium) and 2.5 mL of the top-agar (with traces of histidine and biotin). In the case of metabolic activation, S9 mix was used to activate a promutagen 2-aminofluorene (50 µg/plate, Serva, Heidelberg, Germany). […] As positive controls (PC), the following diagnostic/direct mutagens were used: 9-aminoacridine (50 µg/plate, Serva, Heidelberg, Germany) for TA97; 4-nitroquinoline-1-oxide (20 µg/plate, Serva, Heidelberg, Germany) for TA98; and sodium azide (50 µg/plate, Serva, Heidelberg, Germany) for TA100. […] After 48 h of cultivation at 37 °C, his^+ revertants were counted. All experiments were conducted in triplicate. The data obtained were then analyzed using Student’s t-test.
# S. typhimurium TA100 = conditions: HF 0.075–2 µg/plate + sodium azide 50 µg/plate; without S9
# Method: as §2
# [3] = system: Salmonella typhimurium TA97; conditions: HF 0.075–2 µg/plate + 9-aminoacridine 50 µg/plate; without S9
# Method: as §2
# [4] = cisPt 0.75 µM (positive control)
# [5] = cisPt 0.5 µM (positive control), 100 metaphases
# [6] = HF 0.75 µM pretreatment 24 h + cisPt 0.75 µM
# [7] = HF 1.5 µM pretreatment 24 h + cisPt 0.75 µM
# [8] = HF 0.75 µM pretreatment 24 h + cisPt 0.5 µM, 100 metaphases
# [9] = HF 0.75 µM pretreatment + B(a)P 1.7 µM, 100 metaphases
# [10] = HF 1.5 µM pretreatment 24 h + cisPt 0.5 µM, 100 metaphases
# [11] = HF 1.5 µM pretreatment + B(a)P 1.7 µM, 100 metaphases
compound,measurement,setting,value
"N.N.[Cl][Pt][Cl] [cisPt, cisplatinum(II)diamine dichloride, reference compound]",Number of Aberrant Metaphases,VH10 cells; [4],33 ***
same,"Number of Chromosome Aberrations, Chromatid b/f",VH10 cells; [4],26
same,"Number of Chromosome Aberrations, Chromatid g",VH10 cells; [4],2
same,"Number of Chromosome Aberrations, Exchange qr",VH10 cells; [4],4
same,"Number of Chromosome Aberrations, Exchange tr",VH10 cells; [4],5
same,"Number of Chromosome Aberrations, Isochromatid b/f",VH10 cells; [4],9
same,Total Number of CA,VH10 cells; [4],44 ***
same,Number of Aberrant Metaphases,HepG2 cells [1]; [5],38 ***
same,"Number of Chromosome Aberrations, Chromatid b/f",HepG2 cells [1]; [5],36
same,"Number of Chromosome Aberrations, Chromatid g",HepG2 cells [1]; [5],2
same,"Number of Chromosome Aberrations, Exchange dic",HepG2 cells [1]; [5],2
same,"Number of Chromosome Aberrations, Exchange qr",HepG2 cells [1]; [5],1
same,"Number of Chromosome Aberrations, Isochromatid b/f",HepG2 cells [1]; [5],8
same,Total Number of CA,HepG2 cells [1]; [5],47 ***
Hyperforin [HF],Number of Aberrant Metaphases,VH10 cells; [6],"12 **^,###"
same,"Number of Chromosome Aberrations, Chromatid b/f",VH10 cells; [6],8
same,"Number of Chromosome Aberrations, Chromatid g",VH10 cells; [6],1
same,"Number of Chromosome Aberrations, Exchange dic",VH10 cells; [6],1
same,"Number of Chromosome Aberrations, Exchange qr",VH10 cells; [6],1
same,"Number of Chromosome Aberrations, Exchange tr",VH10 cells; [6],1
same,"Number of Chromosome Aberrations, Isochromatid b/f",VH10 cells; [6],3
same,Total Number of CA,VH10 cells; [6],"14 ***^,###"
same,Number of Aberrant Metaphases,VH10 cells; [7],"11 **^,###"
same,"Number of Chromosome Aberrations, Chromatid b/f",VH10 cells; [7],8
same,"Number of Chromosome Aberrations, Chromatid g",VH10 cells; [7],3
same,"Number of Chromosome Aberrations, Exchange dic",VH10 cells; [7],1
same,"Number of Chromosome Aberrations, Exchange tr",VH10 cells; [7],2
same,Total Number of CA,VH10 cells; [7],"11 **^,###"
same,amount of aberrant metaphases and chromosome aberrations,"VH10 cells; HF pretreatment 24 h, then cisPt 0.75 µM",significant decrease
same,IC50,HepG2 cells [2],19.9 µM
same,Number of Aberrant Metaphases,HepG2 cells [1]; [8],"10 *^,###"
same,"Number of Chromosome Aberrations, Chromatid b/f",HepG2 cells [1]; [8],5
same,"Number of Chromosome Aberrations, Chromatid g",HepG2 cells [1]; [8],2
same,"Number of Chromosome Aberrations, Exchange dic",HepG2 cells [1]; [8],2
same,"Number of Chromosome Aberrations, Isochromatid b/f",HepG2 cells [1]; [8],4
same,Total Number of CA,HepG2 cells [1]; [8],"11 *^,###"
same,Number of Aberrant Metaphases,HepG2 cells [1]; [9],8 ^###
same,"Number of Chromosome Aberrations, Chromatid b/f",HepG2 cells [1]; [9],7
same,"Number of Chromosome Aberrations, Chromatid g",HepG2 cells [1]; [9],1
same,"Number of Chromosome Aberrations, Isochromatid b/f",HepG2 cells [1]; [9],1
same,Total Number of CA,HepG2 cells [1]; [9],8 ^###
same,Number of Aberrant Metaphases,HepG2 cells [1]; [10],"14 **^,###"
same,"Number of Chromosome Aberrations, Chromatid b/f",HepG2 cells [1]; [10],10
same,"Number of Chromosome Aberrations, Chromatid g",HepG2 cells [1]; [10],2
same,"Number of Chromosome Aberrations, Exchange dic",HepG2 cells [1]; [10],1
same,"Number of Chromosome Aberrations, Isochromatid b/f",HepG2 cells [1]; [10],3
same,Total Number of CA,HepG2 cells [1]; [10],"14 **^,###"
same,Number of Aberrant Metaphases,HepG2 cells [1]; [11],8 ^###
same,"Number of Chromosome Aberrations, Chromatid b/f",HepG2 cells [1]; [11],8
same,"Number of Chromosome Aberrations, Chromatid g",HepG2 cells [1]; [11],1
same,"Number of Chromosome Aberrations, Exchange dic",HepG2 cells [1]; [11],1
same,Total Number of CA,HepG2 cells [1]; [11],9 ^###
same,amount of aberrant metaphases and chromosome aberrations,"HepG2 cells [1]; HF 0.75 and 1.5 µM pretreatment 24 h, then cisPt 0.5 µM",significant decrease
same,percentage of damaged DNA vs positive control (zeocin),human lymphocytes,significantly decreased the percentage of damaged DNA
same,number of his+ revertants vs positive control,S. typhimurium TA98,significant decrease
same,antimutagenic effect,S. typhimurium TA100,not observed
same,number of his+ revertants vs positive control,[3],decrease
